Patent publication US12083124B2 (Incyte Corporation, priority 2019, dated 2024)

Experiments:
[1] = molecular target: wild-type un-phosphorylated FGFR3 (Homo sapiens, UniProt P22607); experiment: FGFR Enzymatic Assay (FRET peptide phosphorylation), FGFR3
Description: (§1) The inhibitor potency of the exemplified compounds was determined in an enzyme discontinuous assay that measures peptide phosphorylation using FRET measurements to detect product formation. Inhibitors were serially diluted in DMSO and a volume of 0.2 μL was transferred to the wells of a 384-well plate. […] Appropriate controls (enzyme blank and enzyme with no inhibitor) were included on the plate. […] The 10 μL/well reaction concentration of the peptide substrate was 500 nM whereas the ATP concentration was maintained near or below the ATP Km. The ATP Km values were pre-determined in a separate series of experiments. The reaction plate was incubated at 25° C. for 1 hr and the reactions were ended with the addition of 5 μL/well of quench solution (50 mM Tris, 150 mM NaCl, 0.5 mg/mL BSA, pH 7.8; 45 mM EDTA, 600 nM staurosporin, with Perkin Elmer Lance Reagents at 3.75 nM Eu-antibody PY20 and 180 nM APC-Streptavidin). The plate was allowed to equilibrate for ˜10 minutes at ambient temperature before scanning on a PheraStar plate reader (BMG Labtech) instrument.
(§2) Either GraphPad prism or XLfit was used to analyze the data. The IC50 values were derived by fitting the data to a four parameter logistic equation producing a sigmoidal dose-response curve with a variable Hill coefficient. Prism equation: Y=Bottom+(Top-Bottom)/(1+10^((Log IC50-X)*Hill slope)); XLfit equation: Y=(A+((B−A)/(1+((X/C)^D)))) where X is the logarithm of inhibitor concentration and Y is the response.
(§3) GraphPad prism3 was used to analyze the data. The IC50 values were derived by fitting the data to the equation for a sigmoidal dose-response with a variable slope. Y=Bottom+(Top-Bottom)/(1+10^((Log IC50-X)*Hill Slope)) where X is the logarithm of concentration and Y is the response.

[2] = molecular target: wild-type un-phosphorylated FGFR1 (Homo sapiens, UniProt P11362); experiment: FGFR Enzymatic Assay (FRET peptide phosphorylation), FGFR1; details: FGFR1, wild-type un-phosphorylated FGFR1; pre-incubated for 4 hours
[3] = molecular target: wild-type un-phosphorylated FGFR4 (Homo sapiens, UniProt P22455); experiment: FGFR Enzymatic Assay (FRET peptide phosphorylation), FGFR4
Chain of wild-type un-phosphorylated FGFR4 (P22455 22-802): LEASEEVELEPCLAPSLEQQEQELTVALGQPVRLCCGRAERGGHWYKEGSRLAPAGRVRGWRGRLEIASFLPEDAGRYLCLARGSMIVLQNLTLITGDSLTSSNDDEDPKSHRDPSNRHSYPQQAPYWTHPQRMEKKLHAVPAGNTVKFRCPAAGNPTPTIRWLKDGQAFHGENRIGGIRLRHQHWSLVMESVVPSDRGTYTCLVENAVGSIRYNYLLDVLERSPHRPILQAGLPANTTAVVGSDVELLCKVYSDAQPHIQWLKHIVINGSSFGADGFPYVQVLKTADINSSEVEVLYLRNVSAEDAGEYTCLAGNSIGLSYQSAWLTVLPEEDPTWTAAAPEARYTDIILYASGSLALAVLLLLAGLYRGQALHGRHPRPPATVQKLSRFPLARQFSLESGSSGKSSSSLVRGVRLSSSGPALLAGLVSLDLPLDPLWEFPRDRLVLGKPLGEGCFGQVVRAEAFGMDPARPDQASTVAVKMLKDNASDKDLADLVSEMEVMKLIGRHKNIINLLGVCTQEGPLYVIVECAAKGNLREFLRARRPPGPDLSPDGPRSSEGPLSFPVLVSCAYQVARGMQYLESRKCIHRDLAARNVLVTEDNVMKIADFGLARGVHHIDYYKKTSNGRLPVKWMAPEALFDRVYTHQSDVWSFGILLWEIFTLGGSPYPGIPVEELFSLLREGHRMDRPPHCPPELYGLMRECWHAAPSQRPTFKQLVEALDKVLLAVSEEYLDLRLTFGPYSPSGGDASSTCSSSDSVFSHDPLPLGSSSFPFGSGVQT

[4] = molecular target: wild-type un-phosphorylated FGFR2 (Homo sapiens, UniProt P21802); experiment: FGFR Enzymatic Assay (FRET peptide phosphorylation), FGFR2
Chain of wild-type un-phosphorylated FGFR2 (P21802 22-821): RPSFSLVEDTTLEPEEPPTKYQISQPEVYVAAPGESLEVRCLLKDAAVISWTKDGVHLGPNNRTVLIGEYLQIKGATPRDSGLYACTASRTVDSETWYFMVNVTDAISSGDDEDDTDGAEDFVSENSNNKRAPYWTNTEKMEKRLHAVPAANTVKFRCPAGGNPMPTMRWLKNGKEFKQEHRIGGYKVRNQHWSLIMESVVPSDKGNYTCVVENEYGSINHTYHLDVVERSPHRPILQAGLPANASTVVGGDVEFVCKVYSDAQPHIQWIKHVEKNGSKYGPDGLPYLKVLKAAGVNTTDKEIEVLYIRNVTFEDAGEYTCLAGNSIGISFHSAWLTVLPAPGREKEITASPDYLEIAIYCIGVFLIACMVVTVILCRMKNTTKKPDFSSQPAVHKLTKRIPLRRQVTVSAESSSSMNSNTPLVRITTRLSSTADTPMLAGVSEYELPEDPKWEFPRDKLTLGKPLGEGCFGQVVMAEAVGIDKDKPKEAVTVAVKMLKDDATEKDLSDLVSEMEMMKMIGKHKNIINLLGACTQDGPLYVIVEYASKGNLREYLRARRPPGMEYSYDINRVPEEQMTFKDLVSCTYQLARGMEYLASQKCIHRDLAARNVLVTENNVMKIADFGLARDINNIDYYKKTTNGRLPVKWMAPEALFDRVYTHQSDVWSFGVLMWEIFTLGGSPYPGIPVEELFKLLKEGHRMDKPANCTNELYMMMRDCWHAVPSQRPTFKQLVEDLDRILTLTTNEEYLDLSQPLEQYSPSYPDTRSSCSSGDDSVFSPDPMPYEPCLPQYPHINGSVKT
Description: as §1, §2, §3
The data in Table 1 was measured in wild-type un-phosphorylated FGFR1, FGFR2, FGFR3, and FGFR4 proteins.

Chain of wild-type un-phosphorylated FGFR1 (P11362 22-822): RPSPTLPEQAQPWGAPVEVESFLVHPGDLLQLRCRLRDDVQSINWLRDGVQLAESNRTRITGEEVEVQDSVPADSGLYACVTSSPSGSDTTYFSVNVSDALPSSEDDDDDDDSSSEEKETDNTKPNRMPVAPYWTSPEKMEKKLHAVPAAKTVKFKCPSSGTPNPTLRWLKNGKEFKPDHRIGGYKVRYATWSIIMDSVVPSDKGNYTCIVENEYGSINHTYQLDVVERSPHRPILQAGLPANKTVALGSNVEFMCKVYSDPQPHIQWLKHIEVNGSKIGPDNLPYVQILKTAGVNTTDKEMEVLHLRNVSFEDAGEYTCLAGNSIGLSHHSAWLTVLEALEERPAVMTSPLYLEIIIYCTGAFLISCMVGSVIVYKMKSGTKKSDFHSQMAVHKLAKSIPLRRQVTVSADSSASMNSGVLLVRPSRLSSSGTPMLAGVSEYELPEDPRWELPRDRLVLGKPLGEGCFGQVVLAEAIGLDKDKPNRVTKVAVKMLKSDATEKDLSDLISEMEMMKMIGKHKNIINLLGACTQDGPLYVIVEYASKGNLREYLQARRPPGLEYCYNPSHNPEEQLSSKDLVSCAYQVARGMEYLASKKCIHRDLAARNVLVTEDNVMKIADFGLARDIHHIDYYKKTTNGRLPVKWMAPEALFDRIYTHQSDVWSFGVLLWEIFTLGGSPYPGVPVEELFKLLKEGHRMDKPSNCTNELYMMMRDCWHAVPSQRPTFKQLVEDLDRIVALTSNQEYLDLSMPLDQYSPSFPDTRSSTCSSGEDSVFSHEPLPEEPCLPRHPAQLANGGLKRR
Chain of wild-type un-phosphorylated FGFR3 (P22607 23-806): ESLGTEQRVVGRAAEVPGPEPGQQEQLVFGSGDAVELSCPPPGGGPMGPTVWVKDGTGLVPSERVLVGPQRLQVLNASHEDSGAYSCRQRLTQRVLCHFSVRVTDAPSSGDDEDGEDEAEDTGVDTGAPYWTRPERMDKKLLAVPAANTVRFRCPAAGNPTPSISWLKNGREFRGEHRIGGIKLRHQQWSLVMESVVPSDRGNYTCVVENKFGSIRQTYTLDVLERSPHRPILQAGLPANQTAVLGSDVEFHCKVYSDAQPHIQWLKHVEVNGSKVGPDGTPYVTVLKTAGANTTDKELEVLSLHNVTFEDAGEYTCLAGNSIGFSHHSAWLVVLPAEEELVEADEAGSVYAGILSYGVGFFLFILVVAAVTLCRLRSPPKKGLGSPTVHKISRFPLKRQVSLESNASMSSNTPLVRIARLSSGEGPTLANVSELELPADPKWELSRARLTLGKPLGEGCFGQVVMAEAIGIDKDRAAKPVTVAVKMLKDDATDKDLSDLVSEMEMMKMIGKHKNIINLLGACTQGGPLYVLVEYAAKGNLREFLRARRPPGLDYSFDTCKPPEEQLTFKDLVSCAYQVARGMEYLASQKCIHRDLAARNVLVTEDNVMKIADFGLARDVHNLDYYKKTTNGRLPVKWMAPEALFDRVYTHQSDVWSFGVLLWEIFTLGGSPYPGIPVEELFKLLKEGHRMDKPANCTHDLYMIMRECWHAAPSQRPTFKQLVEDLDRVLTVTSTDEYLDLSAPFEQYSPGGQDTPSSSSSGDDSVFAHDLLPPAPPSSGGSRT

- IC50 [1]: < 0.006 µM
- IC50 [2]: 0.04 to 0.1 µM
- IC50 [3]: 0.04 to 0.1 µM
- IC50 [4]: < 0.006 µM
Compound: COc1cc2[nH]nc(-c3ccc(CN4C[C@H]5C[C@@H]4CO5)nc3)c2nc1-c1cccc2c1CCC2 [Example 200, (1R,4R)-5-((5-(5-(2,3-Dihydro-1H-inden-4-yl)-6-methoxy-1H-pyrazolo[4,3-b]pyridin-3-yl)pyridin-2-yl)methyl)-2-oxa-5-azabicyclo[2.2.1]heptane]
